Measurements as given in ChEMBL document CHEMBL4725447, “De-risking Drug Discovery of Intracellular Targeting Peptides: Screening Strategies to Eliminate False-Positive Hits” (ACS Med Chem Lett, 2020).
pEC50, pKd: −log10 of the molar value. One block for each compound: values may come before it. Calls of active or inactive are those of the source. The calls are words filed in the database; no cut-off is given here. Where a SMILES comes first, the peptide text is derived from it. Bridges are numbered along the chain shown (N, C = ends). [ ]: non-standard residue; d: D form. Phe(4-F) = N[C@@H](Cc1ccc(F)cc1)C(=O)O; d2Nal = N[C@H](Cc1ccc2ccccc2c1)C(=O)O; S5 = C=CCCC[C@](C)(N)C(=O)O

How the values were obtained:
HCT-116 [1] = test: Cytotoxicity against human HCT116 cells assessed as effect on cell membrane preincubated overnight measured after 4 hrs post stimulation by LDH release assay; format: cell-based
HCT-116 [2] = test: Cytotoxicity against human HCT116 cells assessed as effect on cell membrane preincubated overnight measured after 4 hrs post stimulation by LDH release assay relative to control; format: cell-based; details: hct-116, 4 h
[3] = system: GTPase KRas (Homo sapiens), P01116 [G12D]; test: Binding affinity to KRAS G12D mutant (unknown origin) in presence of FAM-labelled peptide at 1 uM by surface plasmon resonance analysis
Chain of GTPase KRas (Homo sapiens), P01116 [G12D] (P01116 whole entry G12D, looked up): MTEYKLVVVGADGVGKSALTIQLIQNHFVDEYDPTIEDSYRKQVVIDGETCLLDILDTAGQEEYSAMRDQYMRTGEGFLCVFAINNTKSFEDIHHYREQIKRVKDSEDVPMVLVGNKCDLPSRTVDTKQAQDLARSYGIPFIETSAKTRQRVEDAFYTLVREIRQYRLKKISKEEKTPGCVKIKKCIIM

[4] = biological target: Eukaryotic translation initiation factor 4E (Homo sapiens) (UniProt P06730); test: Binding affinity to eIF4E (unknown origin) in presence of peptides at 300 nM by surface plasmon resonance analysis
Chain of Eukaryotic translation initiation factor 4E (Homo sapiens) (P06730 whole entry): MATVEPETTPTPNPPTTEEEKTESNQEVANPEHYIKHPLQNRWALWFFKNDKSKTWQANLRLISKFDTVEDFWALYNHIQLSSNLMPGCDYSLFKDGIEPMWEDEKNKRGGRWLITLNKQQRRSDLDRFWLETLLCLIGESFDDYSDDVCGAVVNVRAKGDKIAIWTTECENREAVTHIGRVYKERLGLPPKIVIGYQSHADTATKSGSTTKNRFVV

[5] = system: GTPase KRas (Homo sapiens), P01116 [G12D]; test: (§1) Binding affinity to KRAS G12D mutant (unknown origin) using FAM-labelled peptide as substrate in absence of Tween20 by fluorescence polarization assay
[6] = biological target: E3 ubiquitin-protein ligase Mdm2 (Homo sapiens) (UniProt Q00987); test: Binding affinity to MDM2 (unknown origin) using FAM-labelled peptide as substrate in absence of Tween20 by fluorescence polarization assay
Chain of E3 ubiquitin-protein ligase Mdm2 (Homo sapiens) (Q00987 whole entry, looked up): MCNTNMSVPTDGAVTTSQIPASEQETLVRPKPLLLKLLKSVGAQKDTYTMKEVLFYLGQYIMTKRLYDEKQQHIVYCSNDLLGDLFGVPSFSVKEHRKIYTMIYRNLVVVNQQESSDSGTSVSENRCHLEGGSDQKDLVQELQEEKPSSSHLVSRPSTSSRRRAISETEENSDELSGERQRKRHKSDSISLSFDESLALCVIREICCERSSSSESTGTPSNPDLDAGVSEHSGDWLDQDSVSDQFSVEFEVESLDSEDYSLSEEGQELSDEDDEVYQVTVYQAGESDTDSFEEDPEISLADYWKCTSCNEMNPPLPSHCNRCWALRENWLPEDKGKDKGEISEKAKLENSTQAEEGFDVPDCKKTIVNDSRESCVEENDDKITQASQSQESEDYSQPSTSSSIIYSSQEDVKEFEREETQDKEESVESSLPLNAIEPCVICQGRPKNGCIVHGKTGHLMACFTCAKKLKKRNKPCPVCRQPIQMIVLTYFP

[7] = biological target: Eukaryotic translation initiation factor 4E (Homo sapiens) (UniProt P06730); test: Binding affinity to eIF4E (unknown origin) using FAM-labelled peptide as substrate in absence of Tween20 by fluorescence polarization assay
[8] = Aggregation property of peptides assessed as stable aggregates at 10 uM by dynamic light scattering analysis; format: physicochemical
[9] = Aggregation property of FAM-labelled peptides assessed as diameter of aggregate size at 10 uM by dynamic light scattering analysis; format: physicochemical
[10] = biological target: E3 ubiquitin-protein ligase Mdm2 (Homo sapiens) (UniProt Q00987); test: Binding affinity to MDM2 (unknown origin) using FAM-labelled peptide as substrate in presence of Tween20 by fluorescence polarization assay
[11] = biological target: Eukaryotic translation initiation factor 4E (Homo sapiens) (UniProt P06730); test: Binding affinity to eIF4E (unknown origin) using FAM-labelled peptide as substrate in presence of Tween20 by fluorescence polarization assay
GTPase KRas [12] = biological target: T1, GTPase KRas (Homo sapiens, UniProt P01116); test: Inhibition of KRAS in human U2OS cells assessed as inhibition in phosphorylation of ERK at 20 uM incubated for 15 mins by Western blot analysis; format: cell-based
Target sequence in this assay (P01116 whole entry, looked up): as the sequence (P01116 whole entry G12D, looked up) above, with D12G counted along it

U2OS = test: Antiproliferation activity against human U2OS cells assessed as measuring ATP content at > 20 uM measured after 72 hrs by CellTiter-Glo analysis; format: functional, cell-based; details: dose microM >20, time 72.0 hrs
GTPase KRas [13] = biological target: T1, GTPase KRas; test: Binding affinity to wild type KRAS (unknown origin) using FAM-labelled peptide as substrate in absence of Tween20 by fluorescence polarization assay
Target sequence in this assay (P01116 whole entry): as the sequence (P01116 whole entry G12D, looked up) above, with D12G counted along it

GTPase KRas [14] = biological target: GTPase KRas (Homo sapiens, UniProt P01116, G12D); test: as §1
Chain of GTPase KRas (Homo sapiens, UniProt P01116, G12D) (P01116 whole entry G12D): as the sequence (P01116 whole entry G12D, looked up) above

[15] = system: GTPase KRas (Homo sapiens), P01116 [G12D]; test: Binding affinity to KRAS G12D mutant (unknown origin) upto 1 uM by surface plasmon resonance analysis; details: dose microM <=1
[16] = biological target: E3 ubiquitin-protein ligase Mdm2 (Homo sapiens) (UniProt Q00987); test: Binding affinity to MDM2 (unknown origin) upto 1 uM by surface plasmon resonance analysis; details: dose microM <=1
[17] = biological target: Eukaryotic translation initiation factor 4E (Homo sapiens) (UniProt P06730); test: Binding affinity to eIF4E (unknown origin) upto 1 uM by surface plasmon resonance analysis
[18] = system: GTPase KRas (Homo sapiens), P01116 [G12D]; test: Binding affinity to KRAS G12D mutant (unknown origin) by isothermal titration calorimetry
A549 = test: Antiproliferation activity against human A549 cells assessed as measuring ATP content at > 20 uM measured after 72 hrs by CellTiter-Glo analysis; format: functional, cell-based; details: dose microM >20, time 72.0 hrs
Homo sapiens = organism: Homo sapiens; test: Binding affinity to KRAS Q61H mutant (unknown origin) using FAM-labelled peptide as substrate in presence of Tween20 by fluorescence polarization assay
GTPase KRas [19] = biological target: T1, GTPase KRas; test: Binding affinity to wild type KRAS (unknown origin) using FAM-labelled peptide as substrate in presence of Tween20 by fluorescence polarization assay
Target sequence in this assay (P01116 whole entry, looked up): as the sequence (P01116 whole entry G12D, looked up) above, with D12G counted along it

[20] = biological target: E3 ubiquitin-protein ligase Mdm2 (Homo sapiens) (UniProt Q00987); test: Binding affinity to MDM2 (unknown origin) in presence of FAM-labelled peptides at 1 uM by surface plasmon resonance analysis
[21] = biological target: Eukaryotic translation initiation factor 4E (Homo sapiens) (UniProt P06730); test: Binding affinity to eIF4E (unknown origin) in presence of Fam-labelled peptides at 1 uM by surface plasmon resonance analysis
[22] = system: GTPase KRas (Homo sapiens), P01116 [G12V]; test: Binding affinity to KRAS G12V mutant (unknown origin) by isothermal titration calorimetry
Chain of GTPase KRas (Homo sapiens), P01116 [G12V] (P01116 whole entry G12V): as the sequence (P01116 whole entry G12D, looked up) above, with D12V counted along it

[23] = system: GTPase KRas (Homo sapiens), P01116 [G12D]; test: Binding affinity to KRAS G12D mutant (unknown origin) assessed as change in melting temperature by SYPRO orange dye based thermal shift assay

Activity [3]: inactive | Activity [4]: Active
SMILES: CC(=O)N[C@@H](CCCCN)C(=O)N[C@@H](CCCCN)C(=O)N[C@@H](CCCNC(=N)N)C(=O)N[C@@H](Cc1ccc(O)cc1)C(=O)N[C@@H](CO)C(=O)N[C@@H](CCCNC(=N)N)C(=O)NC(C)(C)C(=O)N[C@@H](CCC(N)=O)C(=O)N[C@@H](CC(C)C)C(=O)N[C@@H](CC(C)C)C(=O)NC(C)(C)C(=O)N[C@@H](CC(C)C)C(N)=O
Activity (HCT-116 [2]): < 10%

Activity [5]: Active | Activity [6]: Active | Activity [7]: Active | Activity [8]: Not Active | Activity [9]: 1200 nm | Activity [10]: inactive | Activity [11]: inactive
SMILES: CC[C@H](C)[C@H](NC(=O)[C@]1(C)CCC/C=C/CCC[C@](C)(NC(=O)CNC(=O)[C@H](Cc2ccccc2)NC(=O)[C@H](Cc2ccccc2)NC(=O)[C@H](CCCNC(=N)N)NC(=O)[C@H](CCCNC(=N)N)NC(C)=O)C(=O)N[C@@H](Cc2ccc(O)cc2)C(=O)N[C@@H](CC(C)C)C(=O)N[C@@H]([C@@H](C)O)C(=O)N1)C(=O)N[C@@H](CC(C)C)C(=O)N[C@@H](CCCCN)C(=O)N[C@H](C(=O)N[C@@H](CCC(=O)O)C(=O)N[C@@H](CCC(=O)O)C(=O)NCC(=O)N[C@@H](CC(N)=O)C(N)=O)[C@@H](C)O
Activity (HCT-116 [2]): < 10%

inhibition (GTPase KRas [12]): Active | pKd (GTPase KRas [13]): 6.37 | pKd (GTPase KRas [14]): 6.37 | Activity [6]: Active | Activity [7]: Active | Activity [8]: Not Active | Activity [9]: 350 nm | Activity [15]: inactive | Activity [16]: inactive | Activity [17]: inactive | Activity [18]: inactive | Activity (Homo sapiens): inactive | Activity (GTPase KRas [19]): inactive | Activity [3]: inactive | Activity [20]: Active | Activity [21]: Active
SMILES: CC[C@H](C)[C@H](NC(=O)CNC(=O)[C@H](Cc1ccccc1)NC(=O)[C@H](Cc1ccccc1)NC(=O)[C@H](CCCNC(=N)N)NC(=O)[C@H](CCCNC(=N)N)NC(C)=O)C(=O)N[C@@]1(C)CCC/C=C/CCC[C@@](C)(C(=O)N[C@@H](CC(C)C)C(=O)N[C@@H](CCCCN)C(=O)N[C@H](C(=O)N[C@@H](CCC(=O)O)C(=O)N[C@@H](CCC(=O)O)C(=O)NCC(=O)N[C@@H](CC(N)=O)C(N)=O)[C@@H](C)O)NC(=O)[C@H](CC(N)=O)NC(=O)[C@H]([C@@H](C)O)NC(=O)[C@H](CC(C)C)NC1=O
Activity (U2OS): Active | pEC50 (HCT-116 [1]): 5.00 | Activity (A549): Active

Activity (GTPase KRas [12]): inactive | Activity [22]: inactive | Activity [8]: Not Active | Activity [15]: inactive | Activity [16]: inactive | Activity [17]: inactive | Activity [18]: inactive | Activity [20]: Active | Activity [21]: Active
SMILES: CCCC[C@H]1NC(=O)[C@H](Cc2ccc(F)cc2)NC(=O)[C@H](CCCNC(=N)N)NC(=O)[C@@H](Cc2ccc3ccccc3c2)NC(=O)[C@H](CCCNC(=N)N)NC(=O)[C@H](CCCNC(=N)N)NC(=O)[C@H](CCCNC(=N)N)NC(=O)[C@H](C)NC(=O)[C@H]([C@@H](C)O)NC(=O)[C@@H](Cc2c[nH]c3ccccc23)NC(=O)[C@@H](CCC(N)=O)NC1=O
Activity (U2OS): Active | pEC50 (HCT-116 [1]): 4.52 | Activity (A549): Active

ΔTm [23]: -5.9 °C
SMILES: CCCC[C@H]1NC(=O)[C@@H](Cc2ccc(F)cc2)NC(=O)[C@H](CCCNC(=N)N)NC(=O)[C@@H](Cc2ccc3ccccc3c2)NC(=O)[C@H](CCCNC(=N)N)NC(=O)[C@H](CCCNC(=N)N)NC(=O)[C@@H](CCCNC(=N)N)NC(=O)[C@@H](C)NC(=O)[C@H](C(C)(C)C)NC(=O)[C@H](Cc2c[nH]c3ccccc23)NC(=O)[C@H](CCC(N)=O)NC1=O

Further lines, the compound ahead of its results:

SMILES: CC(=O)NCCCC[C@H](N)C(=O)N[C@@H](CCCCN)C(=O)N[C@@H](CCCNC(=N)N)C(=O)N[C@@H](Cc1ccc(O)cc1)C(=O)N[C@@H](CO)C(=O)N[C@@H](CCCNC(=N)N)C(=O)N[C@@]1(C)CCC/C=C/CCC[C@@](C)(C(=O)N[C@@H](Cc2ccccc2)C(N)=O)NC(=O)[C@H](C(C)C)NC(=O)[C@H](C(C)C)NC(=O)[C@H](Cc2ccccc2)NC1=O (H-K(Ac)KRYSR[S5]FVV[S5]F-NH2; staple (E) 7-11)
pEC50 (HCT-116 [1]): 4.70

SMILES: C=CCCC[C@](C)(NC(=O)[C@H](CC(N)=O)NC(=O)[C@@H](NC(=O)[C@H](CC(C)C)NC(=O)[C@](C)(CCCC=C)NC(=O)[C@@H](NC(=O)CNC(=O)[C@H](Cc1ccccc1)NC(=O)[C@H](Cc1ccccc1)NC(=O)[C@H](CCCNC(=N)N)NC(=O)[C@H](CCCNC(=N)N)NC(C)=O)[C@@H](C)CC)[C@@H](C)O)C(=O)N[C@@H](CC(C)C)C(=O)N[C@@H](CCCCN)C(=O)N[C@H](C(=O)N[C@@H](CCC(=O)O)C(=O)N[C@@H](CCC(=O)O)C(=O)NCC(=O)N[C@@H](CC(N)=O)C(N)=O)[C@@H](C)O
pEC50 (HCT-116 [1]): 5.10

SMILES: CC(=O)N[C@@H](CC(C)C)C(=O)N[C@H](C(=O)N[C@@H](Cc1ccccc1)C(=O)N[C@]1(C)CCCCCC/C=C/CCC[C@@](C)(C(=O)N[C@H](CO)C(=O)N[C@H](C)C(=O)N[C@H](C)C(N)=O)NC(=O)[C@@H](CC2CCC2)NC(=O)[C@H](CC(C)C)NC(=O)[C@H](CCC(N)=O)NC(=O)[C@H](Cc2c[nH]c3ccccc23)NC(=O)[C@H](Cc2ccc(O)cc2)NC(=O)[C@H](CCC(=O)O)NC1=O)[C@@H](C)O
Activity [3]: inactive

SMILES: C[C@H]1NC(=O)[C@H](CCCNC(=N)N)NC(=O)[C@H](Cc2c[nH]c3ccccc23)NC(=O)[C@H](CCCNC(=N)N)NC(=O)[C@H](Cc2ccc(F)cc2)NC(=O)[C@H](CCCNC(=N)N)NC(=O)[C@@H](Cc2ccc3ccccc3c2)NC(=O)[C@H](CCCNC(=N)N)NC(=O)[C@H](CCCNC(=N)N)NC(=O)[C@H](CCC(N)=O)NC1=O (cyclo(RR[d2Nal]R[Phe(4-F)]RWR[dA]Q))
Activity (HCT-116 [2]): < 10%

SMILES: CC(=O)N[C@@H](CC(C)C)C(=O)N[C@H](C(=O)N[C@@H](Cc1ccccc1)C(=O)N[C@]1(C)CCCCCC/C=C/CCC[C@@](C)(C(=O)N[C@@H](CO)C(=O)N[C@@H](C)C(=O)N[C@@H](C)C(N)=O)NC(=O)[C@H](CC2CCC2)NC(=O)[C@H](CC(C)C)NC(=O)[C@H](CCC(N)=O)NC(=O)[C@H](Cc2c[nH]c3ccccc23)NC(=O)[C@H](Cc2ccc(O)cc2)NC(=O)[C@H](CCC(=O)O)NC1=O)[C@@H](C)O
Activity (HCT-116 [2]): < 10%
